Reference: the SangsterLogP compilation
Non-standard residues stand in square brackets, D forms with d. Residues, ends and D or L forms follow the SMILES beside them.

Assays:
[1] = method code SF-AS, from DOI: 10.1021/jm9807104, PMID: 10514282; settings: pH 7.0
[2] = not given; remark: listed apart in the source
[3] = not given; remark: listed apart in the source
[4] = method code SF, from DOI: 10.1002/syn.20842; settings: pH 7.4
[5] = not given; remark: listed apart in the source
[6] = method code SF-HPLC, from DOI: 10.1016/j.jpba.2007.09.019, PMID: 17988818
[7] = from Zeng, J.; Huang, T.; Li, F.; Zhu, Z.; Chen, L.; Feng, L. (2014). Determination of apparent oil-water partition coefficient and equilibrium solubility of levonorgestrel and gestodene by RP-HPLC. …
[8] = method code SF-AS, from DOI: 10.1021/jm00371a026, PMID: 6425501; settings: pH 7.4
[9] = not given; remark: listed apart in the source
[10] = not given; remark: listed apart in the source
[11] = method code SF-RC, from DOI: 10.1021/es60172a005, PMID: 22280000
[12] = method code SF-HPLC, from DOI: 10.1002/jps.23140, PMID: 22499243; settings: pH 7.4
[13] = not given; remark: listed apart in the source
[14] = method code SF-AS, from PMID: 7271269; settings: pH 6.0
[15] = method code SF-AS, from DOI: 10.1111/j.2042-7158.1983.tb02957.x, PMID: 6135774
[16] = not given; remark: listed apart in the source
[17] = not given; remark: listed apart in the source
[18] = method code SF-RC, from DOI: 10.1016/j.nucmedbio.2009.01.009, PMID: 19423014; settings: pH 7.4
[19] = method code SF-RC, from DOI: 10.1016/j.nucmedbio.2006.10.003, PMID: 17210465; settings: pH 7.4
[20] = method code SF, from DOI: 10.1021/jm00169a014, PMID: 2362268; settings: pH 7.4
[21] = method code SF-AS, from DOI: 10.1002/jps.2600720808, PMID: 6620139
[22] = method code SF-AS, from DOI: 10.1016/0304-4165(87)90236-4, PMID: 2889474
[23] = method code SF-HPLC, from DOI: 10.1016/j.ejps.2012.04.024, PMID: 22609526
[24] = method code SF-AS, from DOI: 10.1021/jm300468t, PMID: 22574992; settings: pH 9.0
[25] = method code SF-RC, from PMID: 447850; settings: pH 7.4
[26] = not given; remark: listed apart in the source
[27] = from Letourneux, Y.; Sparfel, L.; Roussakis, C.; Piessard, S.; LeBaut, G. (1984). Pyrophthalones. VI. Derivatives of (N-alkyldihydro-1,4-pyridinyliden-4-yl)-2-indanedione-1,3. Search for antitumor …; settings: pH 7.4
[28] = method code SF, from DOI: 10.1021/jm300192x, PMID: 22519985; settings: pH 7.4
[29] = method code SF-AS, from PMID: 7460030; settings: pH 7.3
[30] = not given; remark: listed apart in the source
[31] = not given; remark: listed apart in the source
[32] = method code SF-RC, from DOI: 10.1002/jlcr.3239, PMID: 25359578; settings: pH 7.4
[33] = not given; remark: listed apart in the source
[34] = not given; remark: listed apart in the source
[35] = method code SF-HPLC, from DOI: 10.1016/0168-3659(92)90067-2
[36] = method code SF-RC, from DOI: 10.1002/jlcr.3404, PMID: 27126914; settings: pH 7.4
[37] = method code SF-HPLC, from Pan, J.; Wu, Z.; Hui, A.; Tao, M. (2011). Determination of partition coefficients of ginkgolide beta and its prodrug. Shizhen Guo Yi Guo Yao, 22(10)2397-2400.
[38] = method code SF, from DOI: 10.1016/s0223-5234(00)80025-2, PMID: 11278041; settings: pH 7.4
[39] = not given; remark: listed apart in the source
[40] = method code SF, from PMID: 3183
[41] = method code SF-RC, from DOI: 10.1021/jm050166g.s001, PMID: 16162001; settings: pH 7.4

## COC(=O)C(C)NP(=O)(Oc1cccc(C(F)(F)F)c1)OC1C=CC(n2cc(C)c(=O)[nH]c2=O)O1 (configuration not stated)
[1]
  logD: 1.57

## CCCCC[C@H](O)/C=C/[C@H]1[C@H](O)CC(=O)[C@@H]1C/C=C\CCCC(=O)O
other
  logP: 2.9

## FCCC1OC2(CCN(Cc3ccccc3)CC2)c2ccccc21 (configuration not stated)
[2]
  logP: 3.58

## COCCOC(=O)C1=C(C)NC(C)=C(C(=O)OC(C)C)C1c1cccc([N+](=O)[O-])c1 (configuration not stated)
[3]
  logP: 2.82

## CCCS(=O)(=O)N1CCC(CNC(=O)c2ccc(Cl)cc2Cl)(c2cccc(F)n2)CC1
[4]
  logD: 2.9

## O[C@H](CNC[C@H](O)[C@H]1COc2ccccc2O1)[C@@H]1COc2ccccc2O1
[5]
  logP: 2.45

## COc1cc(C=Cc2cc(/C=C/c3ccc(O)c(OC)c3)n[nH]2)ccc1O
[6]
  logP: 1.78

## C#C[C@]1(O)C=C[C@H]2[C@@H]3CCC4=CC(=O)CC[C@@H]4[C@H]3CC[C@@]21CC
[7]
  logP: 3.45

## CO[C@@]12[C@H](COC(N)=O)C3=C(C(=O)C(C)=C(Nc4cccnc4)C3=O)N1C[C@@H]1N[C@@H]12
[8]
  logD: 0.52

## COc1cc(C2c3cc4c(cc3C(O)C3COC(=O)C23)OCO4)cc(OC)c1OC (configuration not stated)
[9]
  logP: 2.01

## Oc1ccc2ccccc2c1/N=N/c1ccc(/N=N/c2ccccc2)cc1
[10]
  logP: 2.11

## Cc1ccc2cc3c(ccc4ccccc43)c3c2c1CC3
[11]
  logP: 6.42

## CCCCCCCCCCCCOP1(=O)OCC(Cn2ccc(N)nc2=O)O1 (configuration not stated)
[12]
  logD: 3.89

## CSc1nc(Nc2ccccc2)c2cnn(CCCl)c2n1
[13]
  logP: 5.49

## COCOC(=O)C1N2C(=O)C(N3C(=O)C(c4ccc(O)cc4)NC3(C)C)C2SC1(C)C (configuration not stated)
[14]
  logD: 0.3

## COc1cc(N)c(Cl)cc1C(=O)NC1CCN(Cc2ccccc2)CC1
[15]
  logP: 2.99

## CNC(=O)c1ccc(Oc2ccc3c(c2)CCN(C2CCC2)CC3)nc1
[16]
  logP: 2.24

## CCOc1ccccc1OCCN[C@H](C)Cc1ccc(OC)c(S(N)(=O)=O)c1
[17]
  logP: 2.2

## CCCCOc1c(OC)ccc2cc(C(=O)NC3CCCCC3)c(=O)[nH]c12
[18]
  logD: 3.9

## CN(C)c1ccc(/C=C/c2ccc(OCCOCCOCCF)nc2)cc1
[19]
  logD: 3.22

## CC(=O)Oc1ccc(C(c2ccc(OC(C)=O)cc2)c2ccccn2)cc1
[20]
  logD: 2.64

## C[C@]12CCC(=O)C=C1CC[C@@H]1[C@@H]2CC[C@@]2(C)[C@H]1CC[C@]2(C)O
[21]
  logP: 3.36

## C=C1C(=O)OC2CC(C)C3C=CC(=O)C3(C)C(OC(=O)C=C(C)C)C12 (configuration not stated)
[22]
  logP: 1.47

## O=c1c(O[C@@H]2OC[C@@H](O)[C@H](O)[C@H]2O)c(-c2ccc(O)c(O)c2)oc2cc(O)cc(O)c12
[23]
  logP: 1.75

## Cc1c2c3cc(NC(=O)CNC(=O)CN)ccc3nc-2n(C)c2ccccc12
[24]
  logD: 0.85

## C[C@]12CCC(=O)C=C1CC[C@@H]1[C@@H]2[C@@H](O)C[C@]2(C=O)[C@@H](C(=O)CO)CC[C@@H]12
[25]
  logD: 1.08

## CN(C)CCO[C@]1(c2ccccc2)C[C@H]2CC[C@]1(C)C2(C)C
[26]
  logP: 5.9

## CC1=CC(=C2C(=O)c3ccccc3C2=O)C=C(C)N1CCCNC(=O)N(CCCl)N=O
[27]
  logD: 2.84

## OCC1OC(c2ccc(N3CCc4ccccc43)cc2)C(O)C(O)C1O (configuration not stated)
[28]
  logD: 2.3

## CCCCCOc1cccc(NC(=O)OC2CCCCC2)c1-n1ccnc1
[29]
  logD: 3.38

## COc1cc(NC(C)=O)c(I)cc1C(=O)NCCCCN1CC2CCC1C2 (configuration not stated)
[30]
  logP: 0.8

## CN(C)c1ccc(-c2ccc3cc(OCC(O)CF)ccc3n2)cc1 (configuration not stated)
[31]
  logP: 3.03

## O=C(NCCF)Nc1ccc(-c2nc(N3CC4CCC(C3)O4)c3cnn(CC(F)(F)F)c3n2)cc1
[32]
  logD: 1.9

## O=C1C(=O)c2ccccc2C(O)=C1C1CCC(c2ccc(Cl)cc2)CC1 (configuration not stated)
[33]
  logP: 5.07

## N#CCNC(=O)[C@@H]1CCCC[C@H]1C(=O)N1CCN(c2ccccc2)CC1
[34]
  logP: 1.8

## CC(=O)N[C@H](Cc1ccc(O)cc1)C(=O)N[C@H](Cc1ccc(O)cc1)C(N)=O (Ac-[dY]-[dY]-NH2)
[35]
  logP: -0.16

## COc1ccc2c(C3=C(c4cn(C)c5ccc(I)cc45)C(=O)NC3=O)coc2c1
[36]
  logD: 3.23

## CC1C(=O)OC2C(O)C34C5CC(C(C)(C)C)C36C(OC(=O)C6O)OC4(C(=O)O5)C12O (configuration not stated)
[37]
  logP: 0.59

## CC(C)Cc1ccc(C(C)C(=O)OCN2C(=O)C(=O)c3ccccc32)cc1 (configuration not stated)
[38]
  logD: 4.23

## CN(C)Cc1ccc(CSCCNc2[nH]cc(Cc3ccccc3)c2[N+](=O)[O-])o1
[39]
  logP: 3.65

## CCCCC(CC)CN1CN(CC(CC)CCCC)CC(C)(N)C1 (configuration not stated)
[40]
  logP: 2.05

## CN(C)c1ccc(C=Cc2ccc(OCC(CO)CF)cc2)cc1 (configuration not stated)
[41]
  logD: 3.14
